Assay results as given in BindingDB's records for PubMed 8863838 (Upr Centre, 1996).

Experiments:
[1] = target: Metabotropic glutamate receptor 4 (Rattus norvegicus, UniProt P31423)
[2] = target: Metabotropic glutamate receptor 2 (Homo sapiens, UniProt Q14416)
Metabotropic glutamate receptor 2, sequence (Q14416 whole entry): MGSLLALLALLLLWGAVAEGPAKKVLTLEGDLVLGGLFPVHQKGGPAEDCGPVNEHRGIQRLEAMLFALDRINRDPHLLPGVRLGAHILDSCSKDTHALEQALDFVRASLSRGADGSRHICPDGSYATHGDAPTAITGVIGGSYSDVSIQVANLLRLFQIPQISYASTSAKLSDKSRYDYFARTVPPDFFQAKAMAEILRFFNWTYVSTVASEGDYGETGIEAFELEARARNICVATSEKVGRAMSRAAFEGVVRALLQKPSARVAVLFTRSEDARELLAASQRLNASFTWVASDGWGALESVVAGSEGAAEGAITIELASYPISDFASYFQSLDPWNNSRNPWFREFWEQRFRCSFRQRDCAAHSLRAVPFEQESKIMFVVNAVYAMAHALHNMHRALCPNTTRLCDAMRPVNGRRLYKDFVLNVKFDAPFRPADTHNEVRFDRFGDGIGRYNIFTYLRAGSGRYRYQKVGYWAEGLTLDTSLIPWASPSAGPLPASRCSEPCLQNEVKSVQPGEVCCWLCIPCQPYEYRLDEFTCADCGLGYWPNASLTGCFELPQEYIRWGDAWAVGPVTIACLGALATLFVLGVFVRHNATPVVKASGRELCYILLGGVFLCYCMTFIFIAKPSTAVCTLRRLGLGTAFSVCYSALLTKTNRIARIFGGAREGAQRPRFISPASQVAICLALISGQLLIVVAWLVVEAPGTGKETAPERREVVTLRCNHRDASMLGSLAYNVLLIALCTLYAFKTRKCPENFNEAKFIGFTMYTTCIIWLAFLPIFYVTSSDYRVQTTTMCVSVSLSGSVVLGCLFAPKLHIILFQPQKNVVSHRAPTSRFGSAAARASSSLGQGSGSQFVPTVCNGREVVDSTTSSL

Metabotropic glutamate receptor 4, sequence (P31423 whole entry): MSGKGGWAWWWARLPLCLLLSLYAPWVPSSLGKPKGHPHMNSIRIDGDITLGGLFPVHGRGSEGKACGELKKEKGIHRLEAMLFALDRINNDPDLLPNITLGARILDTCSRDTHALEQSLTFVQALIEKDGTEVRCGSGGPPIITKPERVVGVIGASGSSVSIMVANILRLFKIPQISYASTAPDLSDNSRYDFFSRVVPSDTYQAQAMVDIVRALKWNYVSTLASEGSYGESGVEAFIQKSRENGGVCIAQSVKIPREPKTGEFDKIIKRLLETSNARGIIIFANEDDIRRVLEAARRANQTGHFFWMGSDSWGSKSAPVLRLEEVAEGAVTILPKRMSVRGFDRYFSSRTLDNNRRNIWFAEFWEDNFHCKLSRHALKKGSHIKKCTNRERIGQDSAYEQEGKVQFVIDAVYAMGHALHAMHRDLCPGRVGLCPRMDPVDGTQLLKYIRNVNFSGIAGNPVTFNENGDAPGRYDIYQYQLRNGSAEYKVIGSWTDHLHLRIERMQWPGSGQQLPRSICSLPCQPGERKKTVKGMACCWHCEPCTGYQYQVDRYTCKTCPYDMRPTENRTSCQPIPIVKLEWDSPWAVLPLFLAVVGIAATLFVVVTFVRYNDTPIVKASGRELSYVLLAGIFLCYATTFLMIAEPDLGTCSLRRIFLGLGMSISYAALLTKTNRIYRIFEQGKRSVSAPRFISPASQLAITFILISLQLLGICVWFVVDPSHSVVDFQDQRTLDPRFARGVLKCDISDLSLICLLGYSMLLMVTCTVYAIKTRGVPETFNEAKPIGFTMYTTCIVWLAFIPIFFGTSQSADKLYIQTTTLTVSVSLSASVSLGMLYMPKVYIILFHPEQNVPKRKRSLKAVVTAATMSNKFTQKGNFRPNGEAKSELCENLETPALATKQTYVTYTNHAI

Row | SMILES | Ki [1] | Ki [2]
1 | N[C@@H](COP(=O)(O)O)C(=O)O | 2.3 µM | 
2 | N[C@@H](CCP(=O)(O)O)C(=O)O | 0.4 µM | 
3 | NC(C(=O)O)c1ccc(C(=O)O)c(O)c1 (stereo not drawn) |  | > 10 µM
4 | CC(N)(C(=O)O)c1ccc(P(=O)(O)O)cc1 (stereo not drawn) | > 10 µM | > 10 µM
5 | C[C@@](N)(C(=O)O)c1ccc(C(=O)O)cc1 (racemic) |  | > 10 µM
6 | N[C@@]1(C(=O)O)CC[C@H](C(=O)O)C1 [1S, 3R-ACPD] | > 10 µM | > 10 µM
7 | N[C@@H](Cn1oc(=O)[nH]c1=O)C(=O)O [2-amino-3-(3,5-dioxo[1,2,4]oxadiazolidin-2-yl)propionic acid] | > 10 µM | > 10 µM
8 | NC(C(=O)O)c1ccc(C(=O)O)cc1 (stereo not drawn) [4-(Amino-carboxy-methyl)-benzoic acid] |  | > 10 µM
9 | N[C@H](C(=O)O)[C@H]1C[C@@H]1C(=O)O [(1S,2S)-2-((S)-Amino-carboxy-methyl)-cyclopropanecarboxylic acid] | 8.9 µM | 0.49 µM
10 | N[C@@]1(C(=O)O)CC[C@H](CC(=O)O)C1 [(1S,3S)-HOMO-ACPD] | > 10 µM | > 10 µM
11 | NC(C(=O)O)c1cc(=O)[nH]o1 (stereo not drawn) [Amino-(3-hydroxy-isoxazol-5-yl)-acetic acid(Ibotenic acid)] | > 10 µM | 
12 | N[C@@H](CCC(=O)O)C(=O)O [L-Glutamic acid] | > 10 µM | 
13 | C[C@](N)(C(=O)O)C1C[C@@H]1C(=O)O (stereo partly drawn) [MCCG-I] |  | > 10 µM
14 | CC(N)(CCP(=O)(O)O)C(=O)O (stereo not drawn) [NSC_1795545] | > 10 µM | > 10 µM
15 | CC(N)(C(=O)O)c1ccc(S(=O)(=O)O)cc1 (stereo not drawn) [NSC_3964410] | > 10 µM | > 10 µM
16 | CC(N)(C(=O)O)c1ccc(-n2cnnn2)cc1 (stereo not drawn) [NSC_5311456] |  | > 10 µM
